In the NIST ThermoML archive (doi:10.1021/je400055v):

Assay: xn = mol fraction of the nth substance listed
Conditions: Liquid, Vibrating tube method

CCCCCCCCCCC [undecane] + CCCCCCC
Conditions	mass density [kg/m3]
343.03 K, 20000 kPa, x2 = 0.7482	682.7
343.03 K, 21000 kPa, x2 = 0.7482	683.6
343.03 K, 22000 kPa, x2 = 0.7482	684.5
343.03 K, 23000 kPa, x2 = 0.7482	685.4
343.03 K, 24000 kPa, x2 = 0.7482	686.2
343.03 K, 25000 kPa, x2 = 0.7482	687.1
343.06 K, 1010 kPa, x2 = 0.2346	693.6
343.06 K, 2010 kPa, x2 = 0.2346	694.6
343.06 K, 3010 kPa, x2 = 0.2346	695.7
343.06 K, 4011 kPa, x2 = 0.2346	696.7
343.06 K, 5011 kPa, x2 = 0.2346	697.7
343.06 K, 6011 kPa, x2 = 0.2346	698.7
343.06 K, 7012 kPa, x2 = 0.2346	699.7
343.06 K, 8012 kPa, x2 = 0.2346	700.6
343.06 K, 9012 kPa, x2 = 0.2346	701.6
343.06 K, 10013 kPa, x2 = 0.2346	702.5
343.06 K, 11013 kPa, x2 = 0.2346	703.5
343.06 K, 12014 kPa, x2 = 0.2346	704.4
343.06 K, 13014 kPa, x2 = 0.2346	705.3
343.06 K, 14014 kPa, x2 = 0.2346	706.2
343.06 K, 15015 kPa, x2 = 0.2346	707
343.06 K, 16016 kPa, x2 = 0.2346	707.9
343.06 K, 17016 kPa, x2 = 0.2346	708.8
343.06 K, 18017 kPa, x2 = 0.2346	709.6
343.06 K, 19017 kPa, x2 = 0.2346	710.4
343.06 K, 20018 kPa, x2 = 0.2346	711.3
343.06 K, 21051 kPa, x2 = 0.2346	712.1
343.06 K, 22053 kPa, x2 = 0.2346	712.9
343.06 K, 23055 kPa, x2 = 0.2346	713.7
343.06 K, 24057 kPa, x2 = 0.2346	714.5
343.06 K, 25059 kPa, x2 = 0.2346	715.2
352.9 K, 1001 kPa, x2 = 0.9511	636.9
352.9 K, 2000 kPa, x2 = 0.9511	638.4
352.9 K, 3000 kPa, x2 = 0.9511	639.8
352.9 K, 4000 kPa, x2 = 0.9511	641.1
352.9 K, 5000 kPa, x2 = 0.9511	642.5
352.9 K, 6000 kPa, x2 = 0.9511	643.8
352.9 K, 7000 kPa, x2 = 0.9511	645.1
352.9 K, 8000 kPa, x2 = 0.9511	646.4
352.9 K, 9000 kPa, x2 = 0.9511	647.7
352.9 K, 10000 kPa, x2 = 0.9511	648.9
352.9 K, 11000 kPa, x2 = 0.9511	650.1
352.9 K, 12000 kPa, x2 = 0.9511	651.3
352.9 K, 13000 kPa, x2 = 0.9511	652.5
352.9 K, 14001 kPa, x2 = 0.9511	653.6
352.9 K, 15001 kPa, x2 = 0.9511	654.8
352.9 K, 16000 kPa, x2 = 0.9511	655.9
352.9 K, 17001 kPa, x2 = 0.9511	657
352.9 K, 18001 kPa, x2 = 0.9511	658
352.9 K, 19000 kPa, x2 = 0.9511	659.1
352.9 K, 20000 kPa, x2 = 0.9511	660.1
352.9 K, 21001 kPa, x2 = 0.9511	661.2
352.9 K, 22000 kPa, x2 = 0.9511	662.2
352.9 K, 23001 kPa, x2 = 0.9511	663.2
352.9 K, 24000 kPa, x2 = 0.9511	664.1
352.9 K, 25000 kPa, x2 = 0.9511	665.1
352.96 K, 1001 kPa, x2 = 0.05	694
352.96 K, 2001 kPa, x2 = 0.05	695.1
352.96 K, 2001 kPa, x2 = 0.5063	672.2
352.96 K, 3000 kPa, x2 = 0.05	696.1
352.96 K, 3000 kPa, x2 = 0.5063	673.4
352.96 K, 4000 kPa, x2 = 0.05	697.2
352.96 K, 4000 kPa, x2 = 0.5063	674.6
352.96 K, 5000 kPa, x2 = 0.05	698.2
352.96 K, 5000 kPa, x2 = 0.5063	675.7
352.96 K, 6000 kPa, x2 = 0.05	699.2
352.96 K, 6000 kPa, x2 = 0.5063	676.8
352.96 K, 7000 kPa, x2 = 0.05	700.2
352.96 K, 7000 kPa, x2 = 0.5063	677.9
352.96 K, 8001 kPa, x2 = 0.05	701.2
352.96 K, 8001 kPa, x2 = 0.5063	679
352.96 K, 9000 kPa, x2 = 0.05	702.2
352.96 K, 9000 kPa, x2 = 0.5063	680.1
352.96 K, 10000 kPa, x2 = 0.05	703.2
352.96 K, 10000 kPa, x2 = 0.5063	681.2
352.96 K, 11000 kPa, x2 = 0.05	704.1
352.96 K, 11000 kPa, x2 = 0.5063	682.2
352.96 K, 12000 kPa, x2 = 0.05	705.1
352.96 K, 12000 kPa, x2 = 0.5063	683.2
352.96 K, 13000 kPa, x2 = 0.05	706
352.96 K, 13000 kPa, x2 = 0.5063	684.2
352.96 K, 14000 kPa, x2 = 0.05	706.9
352.96 K, 14000 kPa, x2 = 0.5063	685.2
352.96 K, 15000 kPa, x2 = 0.05	707.8
352.96 K, 15000 kPa, x2 = 0.5063	686.2
352.96 K, 16000 kPa, x2 = 0.05	708.7
352.96 K, 16000 kPa, x2 = 0.5063	687.2
352.96 K, 17000 kPa, x2 = 0.05	709.6
352.96 K, 17001 kPa, x2 = 0.5063	688.1
352.96 K, 18000 kPa, x2 = 0.05	710.4
352.96 K, 18000 kPa, x2 = 0.5063	689.1
352.96 K, 19000 kPa, x2 = 0.05	711.3
352.96 K, 19000 kPa, x2 = 0.5063	690
